The numbers were not newly measured in patent US8518876B2, “Composition for long-acting peptide analogs” (Pharmaln Corporation, priority 2007, dated 2013), which cites them from elsewhere.

For the series the following is noted: cited from earlier work.

The structures appear in SMILES notation.

By half-life is commonly meant the time in which the quantity being followed falls by half. On to `NC(=O)CC[C@@H]1NC(=O)[C@H](Cc2ccccc2)NC(=O)[C@H](Cc2ccc(O)cc2)NC(=O)[C@@H](N)CSSC[C@@H](C(=O)N2CCC[C@H]2C(=O)N[C@@H](CCCN=C(N)N)C(=O)NCC(N)=O)NC(=O)[C@H](CC(N)=O)NC1=O` [vasopressin], for which the half-life was 24 min.
